Test system: ischemic ulcers
Assay: Case report: ischemic ulcers (peripheral vascular disease)
Format: in vivo, human
Conditions: person, prior therapy before topical treatment
From the text: A person presents with chronic peripheral vascular disease and ischemic ulcers over the medial aspect of the hallux.

For `CC(=O)CCCCn1c(=O)c2c(ncn2C)n(C)c1=O` [Trental], the healing was “failed to improve healing”.

From patent publication US10881640B2, “Topical pharmaceutical compositions for treatment of pilonidal sinus wounds” (S.L.A. PHARMA AG, priority 2002, dated 2021)
